Square brackets hold non-standard residues; d marks the D form. Peptide text beside a SMILES is read from it. Nle = CCCC[C@H](N)C(=O)O
Experiments:
[1] = system: p73; test: Western blot of p73 in MCF-7-p73 cells after proteosome inhibitor; type: cell-based, human; conditions: proteosome inhibitor for 3 hours
Description: FIG. 4. c-Jun is required for UV-mediated p73 stabilization. (a) MCF-7 cells stably transfected with p73 and parental MCF-7 cells were treated with the proteosome inhibitor for 3 hours or UV irradiated (50 J/m^2) and cell extracts were analyzed 2 hours post-irradiation by Western blotting as described in FIG. 1. (b) c-Jun^−/− and c-Jun^−/−+c-Jun mouse embryonic fibroblasts were transfected with the indicated plasmids and were untreated or UVC irradiated (40 J/m^2) or gamma-irradiation (10Gy) 24 hours post-transfection. 24 hours after irradiation, cell extracts were prepared and analyzed for p73 protein levels by Western blotting.
To analyze if c-Jun provides the stabilization signal, the inventors generated MCF-7 breast carcinoma cells stably expressing p73 (MCF-7-p73 cells), which would thus provide a detectable level of basal p73 expression. The overexpressed p73 was expressed in these cells (FIG. 4a). […] However, when these cells were treated with UV irradiation, which is a potent inducer of c-Jun but not p73 (Jost C A. et al, p73 is a simian [correction of human] p53-related protein that can induce apoptosis, Nature, 1997, Sep. 11; 389(6647):191-4.), p73 expression was detected as early as 2 hours post-irradiation, in contrast to the parental MCF-7 cells (FIG. 4a).

[2] = system: p73; test: Western blot of endogenous p73 levels in fibroblasts after cisplatin; type: cell-based, mouse; parameters: levels of p73 protein: dose or concentration left out as unconfirmed
Description: FIG. 1. […] These extracts were analysed by Western blotting for the expression of p73 and phosphorylated c-Jun using specific antibodies.
FIG. 2. c-Jun is necessary for cisplatin-induced p73 expression and apoptosis. […] (b) Extracts from cells described in (a) were analyzed for endogenous p73 levels by Western blotting.
Although p73 is a structural and functional homologue of the p53 tumour suppressor protein, p73 is only activated by a subset of agents that activate p53. […] The inventors have thus investigated the molecular mechanism(s) by which p73 activity is regulated. […] The increase in p73 levels in cisplatin-treated cells correlates with the phosphorylation of the proto-oncogene product, c-Jun (FIG. 1). Phosphorylated c-Jun was not detected upon gamma-irradiation of cells (FIG. 1).

[3] = system: p73; test: Egfp reporter screen for p73 activation in H1299-p53RE cells; type: cell-based, human; conditions: p53-null H1299 reporter cells
Source text: The screen utilises a p53 null cell line, H1299, which is a human lung cancer cell line. In these cells, p53 is not active as the gene is deleted. The inventors have transfected a plasmid containing the p53/p73 binding DNA sequences (or responsive element) driving the enhanced green fluorescent protein gene (Egfp) as a reporter (FIG. 8). Generally, the reporter would be turned “on” when p53 or its homologues bind to the responsive element. […] However, when the cells are exposed to compounds that activate p73, which is normally present in a dormant state in these cells, then these cells would fluoresce and would be visible as green cells under the fluorescence microscope.
It is important to note that all the cells in the population expressed Egfp, implying that the cell-system generated is homogenous and results in a 100% response.

| Structure (SMILES) | expression of p73 protein [1] | p73 protein induction ([2]; absence of c-Abl, cisplatin) | p73 protein induction ([2]; c-Jun-/- cells, cisplatin 25 μM, 24 hours) | p73 protein induction ([2]; jun-/-+c-Jun cells, cisplatin 25 μM, 24 hours) | levels of p73 protein ([2]; wild-type mouse embryonic fibroblasts, cisplatin (FIG. 1), 24 hours post-treatment) | response of the cell population (cells expressing Egfp) ([3]; cisplatin treated) [%] | expression of Egfp (endogenous p73 activity) ([3]; flow cytometer) |
| --- | --- | --- | --- | --- | --- | --- | --- |
| CCCC[C@@H](C=O)NC(=O)[C@H](CC(C)C)NC(=O)[C@H](CC(C)C)NC(C)=O [ALLN] (Ac-Leu-Leu-[Nle]-aldehyde) | did not result in the increased expression of p73 protein | – | – | – | – | – | – |
| N.N.[Cl][Pt][Cl] [cisplatin] | – | severely compromised | abrogated the induction of p73 | induced significantly | increase in the levels of p73 protein | 100 | expression of Egfp in all the cells |
